Read-outs that look alike come from different tables or passages of the source. Marks after values point to notes of the source that are not given here.
Assays:
[1] = tested on: human lung cancer cell strain A549; assay: MTT assay, inhibition of growth of human lung cancer cell strain A549; format: cell-based
In short: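 A549 cells grown in F12 with 10% FBS; growth read by MTT, inhibition rate from blank-corrected OD of drug wells versus control wells.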

mice S180 sarcoma [2] = assay: Experimental therapeutic action on S180 sarcoma mice; settings: for Tumor growth inhibition rate (%): mice S180 sarcoma, 60 mg/kg orally for 9 days
Procedure: (§1) Experimental therapeutic action of the compound in the present invention on S180 sarcoma mice
(§2) 18-25 g female ICR mice and well grown 7-11 day old mice sarcoma S180 tumor seeds were selected, and the seeds were inoculated into the subcutaneous at the right axillary. After inoculated 24 hours, these mice were randomly divided into cages and orally administrated 60 mg/kg for 9 days. On 10 day, the animals were killed and weighed, and the tumor weights were weighed to calculate average tumor weight in each group, followed by calculating the tumor inhibition rate according to the following formula and T test.

lung cancer cell A549 = assay: Effects on the adhesive ability of lung cancer cell A549; format: cell-based, human; settings: Final concentration 1 x 1.0*10^(−5) mol/L
In short: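 A549 cells in 1640 medium with 10% FBS tested for adhesion to gelatin versus poly-lysine (PLL), with CCK8 used as read-out. Inhibition rate derived from the gelatin/PLL adhesion OD ratio of dosed cells relative to the undosed cell group.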

[3] = tested on: human lung cancer A549 transplantation tumor; format: in vivo; settings: BALB/cA nude mice; 60 mg/kg, 6 times every week for 3 weeks; Sorafenib oral 60 mg/kg
In short: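 Female BALB/cA nude mice, 35-40 days old, bearing A549 human lung cancer transplants; 6 per treatment group, 12 saline controls. Compound given at 60 mg/kg, 6 times weekly for 3 weeks, then observed one week.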

mice S180 sarcoma [4] = settings: mouse, in vivo, 60 mg/kg
Procedure: as §1, §2

[5] = tested on: human umbilical vein endothelial cell HUVEC; assay: Lumen formation ability of HUVEC (Matrigel method); format: cell-based; settings: Final concentration 1 x 1.0*10^(−5) mol/L
In short: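 HUVEC at passage 3–5, cultured in M199 at 37° C under 5% CO2, were plated on Matrigel with compound. Spontaneous lumen formation was scored as an inhibition rate.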

[6] = tested on: Human colon cancer HT-29 transplantable tumor; assay: Human colon cancer HT-29 transplantable tumor in nude mice; settings: for Relative tumor reproduction rate T/C (%): HT-29 in nude mice
Procedure: Experimental therapeutic action of the compound in the present invention on Human colon cancer HT-29 transplantable tumor in nude mice.
Take eugenic tumor tissues and cut into about 1.5 mm^3, and then incoculate subcutaneously at the right armpit of nude mice under the sterile conditions. The diameter of the transplantable tumor in nude mice was determined with a vernier caliper, and the animals were divided into groups after the tumors were grown to 100-300 mm^3. Using the method of measuring the tumor diameter, dynamically observe the antitumor effects of tested materials. The diameter of the tumor was determined three times every week and the mouse weight was weighed at the same time. […] The solvent was intragastrically administrated as the control for continuous 9 times. Equal amount of control was administrated in the negative control group.
Tumor volume (TV) is calculated as: TV=½×a×b^2, wherein a and b respectively represent length and width.
Relative tumor volume (RTV) is calculated as: RTV=TVt/TV0, wherein TV0 is the tumor volume when administrated according to different cages and TVt is the tumor volume measured each time.
Relative tumor reproduction rate T/C (%) is calculated as follows:
TRTV: RTV in the treatment group; CRTV: RTV in the negative control group.
The test results used relative tumor reproduction rate T/C (%) as evaluating indicator of anti-tumor activity.

Raf-1(truncated) = assay: Raf-1 inhibitor screening by chemoluminescence method; format: biochemical; settings: Final concentration 1 x 1.0*10^−5 mol/ml
Excerpt: 1. Inhibitory activity of the compound of the present invention on raf kinase
Raf-1 inhibitor screening by chemoluminescence method
Westernblot electrophoresis apparatus Rotaryshaker
Raf-1(truncated), Magnesium/ATP Cocktail, MEK1 unactive

[7] = tested on: renal carcinoma cell line GCR-1 transplanted tumor; format: in vivo, BALB/cA nude mice; settings: BALB/cA nude mice; 60 mg/kg, 6 times every week for 3 weeks; Sorafenib oral 60 mg/kg
In short: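 Female BALB/cA nude mice (18–22 g) bearing GCR-1 renal carcinoma xenografts, 6 per treated group, 12 saline controls. Drug given at 60 mg/kg, 6 times weekly for 3 weeks, then one week of observation; tumor inhibition rate reported.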

[8] = tested on: human high-metastic lung cancer cell 95D; assay: Inhibition of human high-metastic lung cancer cell 95D migration (Boyden Chamber Transwell); format: cell-based; settings: Final concentration 1 x 1.0*10^(−5) mol/L
In short: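 Boyden Transwell migration (8 μm pores) of 95D cells, RPMI-1640 with 10% FBS versus serum-free medium; inhibition rate calculated.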

[9] = tested on: human liver cancer cell bel-7402 transplantation tumor; format: in vivo; settings: BALB/cA nude mice; 60 mg/kg, 6 times every week for 3 weeks; Sorafenib oral 60 mg/kg
In short: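 Female BALB/cA nude mice (35–40 days, 18–22 g) bearing Bel-7402 xenografts; 6 mice per treated group, 12 in saline controls. Compound dosed at 60 mg/kg, 6 times weekly for 3 weeks, followed by one week of observation; tumor inhibition rate scored against controls.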

[10] = tested on: human umbilical vein endothelial cell HUVEC; assay: Growth of human umbilical vein endothelial cell HUVEC by CCK8 method; format: cell-based; settings: Final concentration 1 x 1.0*10^(−5) mol/L
In short: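 HUVEC cells were grown in 1640 medium with 10% FBS, and growth was measured by the CCK8 method. OD values of drug and control wells were corrected by subtracting the blank-well OD.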

[11] = Final concentration 1 x 1.0*10^(−5) mol/L

Row | SMILES | Inhibition rate, growth of human lung cancer cell A549 [1, 11] | Tumor weight x ± SD (mice S180 sarcoma [2]; 60 mg/kg ig for 9 days, day 10) | Tumor growth inhibition rate (%) (mice S180 sarcoma [2]) | Inhibition rate, adhesion ability of human lung cancer cell A549 (lung cancer cell A549) | Relative tumor reproduction rate T/C (%) on human lung cancer A549 transplantation tumor in nude mice [3] | Weight (g) Start (mice S180 sarcoma [4]) | Inhibition rate, lumen formation ability of HUVEC [5] | Relative tumor reproduction rate T/C (%) ([6]; 60 mg/kg ig 9 times, 60 mg/kg) | RTV ([6]; relative tumor volume, 60 mg/kg ig 9 times) | TV d0 ([6]; tumor volume d0, 60 mg/kg) | TV d13 ([6]; tumor volume d13, 60 mg/kg ig 9 times) | Inhibition rate % on raf kinase (Raf-1(truncated)) | Relative tumor reproduction rate T/C (%) on human renal carcinoma GCR-1 cell transplanted tumor model in nude mice [7] | Inhibition rate, 95D cell strain migration [8] | Relative tumor reproduction rate T/C (%) on human liver cancer cell bel-7402 transplantation tumor model in nude mice [9] | Inhibition rate, growth of HUVEC cell [10] | Relative tumor reproduction rate T/C (%) ([6]; 60 mg/kg ig 9 times) | Inhibition rate, growth of human lung cancer cell A549 [1]
1 | CNC(=O)c1cc(Oc2ccc(NC(=O)Nc3ccc(Br)c(C(F)(F)F)c3)cc2)c2cc(OC)ccc2n1 [Compound 3] | 69.67% | 0.75 ± 0.36 g | 53.4% | 79.66% | 37.2% | 18.0 ± 1.1 g | 76.61% | 47.34% | 2.40 ± 0.67 | 133 ± 18 | 322 ± 129 | 56.3% | 31.3% | 96.64% | 30.1% | 27.67% | – | –
2 | COc1ccc2nccc(Oc3ccc(NC(=O)Nc4ccc(Cl)c(C(F)(F)F)c4)cc3)c2c1 [Compound 16] | 89.71% | – | 33.6% | 90.77% | 9.9% | – | 80.79% | – | – | – | – | 62.1% | 9.9% | 89.31% | 14.9% | 10.71% | 55.2% | –
3 | CCc1cc(NC(=O)Nc2ccc(Oc3ccnc4cc(F)c(OC)cc34)cc2)ccc1Cl [Compound 31, N-(4-chloro-3-ethylphenyl)-N′-(4-(4-(6-methoxyl-7-fluoro-quinolinyl)oxy)phenyl)urea] | – | – | 50.3% | 66.77% | 38.7% | – | 66.77% | – | – | – | – | 89.4% | 31.4% | 76.18% | 33.4% | 26.70% | 50.3% | 46.78%
4 | COc1ncncc1Oc1ccc(NC(=O)Nc2ccc(Br)c(C(F)(F)F)c2)cc1 [Compound 24, N-(4-bromo-3-(trifluoromethyl)phenyl)-N′-(4-(5-(4-methoxypyrimidinyl)oxy)phenyl)urea] | – | – | 54.6% | 73.30% | 15.6% | – | 93.78% | – | – | – | – | 91.3% | 10.8% | 85.48% | 16.8% | 13.32% | 37.8% | 86.32%
5 | CCc1ccc(NC(=O)Nc2ccc(Oc3ccnc4cc(F)c(OC)cc34)cc2)cc1C(F)(F)F [Compound 32, N-(4-ethyl-3-(trifluoromethyl)phenyl)-N′-(4-(4-(6-methoxyl-7-fluoro-quinolinyl)oxy)phenyl)urea] | – | – | 49.8% | 64.73% | 35.3% | – | 54.74% | – | – | – | – | 90.5% | 32.5% | 66.92% | 31.4% | 24.77% | 46.2% | 45.76%

Source: US8957087B2, “Heterocyclic substituted acardite derivate and application thereof” (Jiangsu Provincial Institute of Materia Medica Co., Ltd., priority 2009, dated 2015)
